Laboratory results reported in patent US20240246932A1 (Merck Sharp & Dohme LLC, priority 2021, published 2024).

These compounds were tested against human NaV 1.8 channels stably expressed in HEK 293 cells (Homo sapiens (Human), UniProt Q9Y5Y9) (assay: Nav1.8 Qube automated patch-clamp assay). Details: human NaV1.8 in HEK 293 cells, whole-cell voltage clamp, room temperature; read-out: IC50 values (nM) for Examples in the Nav1.8 Qube Assay.
Format: cell-based
Description: Compounds were tested on human NaV 1.8 and NaV1.5 channels stably expressed in human embryo kidney (HEK) 293 cells. Sodium current measurements on Qube® were conducted as follows: automated 384-well patch-clamp assays on the Qube® platform (Sophion Biosciences) were used to measure the inhibition of sodium flow through human NaV1.8 and NaV1.5 channels. Whole-cell voltage-clamp recordings were performed in QChips® (Sophion Biosciences) at room temperature. NaV1.8 current measurements on Qube® were obtained as follows: NaV1.8 currents were elicited with a 10 second 1 Hertz (Hz) pulse train from a holding potential of −90 millivolts (mV), delivered to the cells once per minute in the control condition (DMSO only) and after compound addition. The 1 hertz pulse train stimulation consisted of ten test pulses to 10 millivolt (mV) for 20 milliseconds (ms), each of which was followed by a 980 millisecond repolarization to −67 millivolts. At the end of the 10 second pulse train stimulation, a 5 second hyperpolarization step to −100 millivolt (mV) was used to recover NaV1.8 from fast inactivation. The peak currents elicited by the 1st and 10th test pulses were used to determine IC50 values for resting inhibition and inactivated state inhibition. NaV1.5 current measurements on Qube® were obtained as follows: NaV1.5 currents were elicited with a 20 second 3 Hertz pulse train in the control condition (DMSO only) and after compound addition. The pulse train consisted of sixty 20 millisecond test pulses to 0 millivolt from a holding potential of −80 millivolt (mV). The average peak currents elicited by the last 3 test pulses were used to determine IC50 values for NaV1.5 inhibition.
The following buffers were used for the Qube® recordings: External buffer for NaV1.8 Qube® recording: 150 NaCl, 2 CaCl2, 5 KCl, 1 MgCl2, 10 HEPES, 12 Dextrose; External buffer for Qube® NaV1.5 recording: 120 N-Methyl-D-Glucamine, 40 NaCl, 1 KCl, 2.7 CaCl2), 5 HEPES, 0.5 MgCl2; and Internal buffer for Qube® recording: 120 CsF, 30 CsCl, 10 EGTA, 5 HEPES, 5 NaF, 2 MgCl2.
For all Qube® experiments offline analysis was used to determine percent inhibition as a function of drug concentration. IC50 values were determined by fitting to the Hill equation.

human NaV 1.8 channels stably expressed in HEK 293 cells, sequence (Q9Y5Y9 whole entry): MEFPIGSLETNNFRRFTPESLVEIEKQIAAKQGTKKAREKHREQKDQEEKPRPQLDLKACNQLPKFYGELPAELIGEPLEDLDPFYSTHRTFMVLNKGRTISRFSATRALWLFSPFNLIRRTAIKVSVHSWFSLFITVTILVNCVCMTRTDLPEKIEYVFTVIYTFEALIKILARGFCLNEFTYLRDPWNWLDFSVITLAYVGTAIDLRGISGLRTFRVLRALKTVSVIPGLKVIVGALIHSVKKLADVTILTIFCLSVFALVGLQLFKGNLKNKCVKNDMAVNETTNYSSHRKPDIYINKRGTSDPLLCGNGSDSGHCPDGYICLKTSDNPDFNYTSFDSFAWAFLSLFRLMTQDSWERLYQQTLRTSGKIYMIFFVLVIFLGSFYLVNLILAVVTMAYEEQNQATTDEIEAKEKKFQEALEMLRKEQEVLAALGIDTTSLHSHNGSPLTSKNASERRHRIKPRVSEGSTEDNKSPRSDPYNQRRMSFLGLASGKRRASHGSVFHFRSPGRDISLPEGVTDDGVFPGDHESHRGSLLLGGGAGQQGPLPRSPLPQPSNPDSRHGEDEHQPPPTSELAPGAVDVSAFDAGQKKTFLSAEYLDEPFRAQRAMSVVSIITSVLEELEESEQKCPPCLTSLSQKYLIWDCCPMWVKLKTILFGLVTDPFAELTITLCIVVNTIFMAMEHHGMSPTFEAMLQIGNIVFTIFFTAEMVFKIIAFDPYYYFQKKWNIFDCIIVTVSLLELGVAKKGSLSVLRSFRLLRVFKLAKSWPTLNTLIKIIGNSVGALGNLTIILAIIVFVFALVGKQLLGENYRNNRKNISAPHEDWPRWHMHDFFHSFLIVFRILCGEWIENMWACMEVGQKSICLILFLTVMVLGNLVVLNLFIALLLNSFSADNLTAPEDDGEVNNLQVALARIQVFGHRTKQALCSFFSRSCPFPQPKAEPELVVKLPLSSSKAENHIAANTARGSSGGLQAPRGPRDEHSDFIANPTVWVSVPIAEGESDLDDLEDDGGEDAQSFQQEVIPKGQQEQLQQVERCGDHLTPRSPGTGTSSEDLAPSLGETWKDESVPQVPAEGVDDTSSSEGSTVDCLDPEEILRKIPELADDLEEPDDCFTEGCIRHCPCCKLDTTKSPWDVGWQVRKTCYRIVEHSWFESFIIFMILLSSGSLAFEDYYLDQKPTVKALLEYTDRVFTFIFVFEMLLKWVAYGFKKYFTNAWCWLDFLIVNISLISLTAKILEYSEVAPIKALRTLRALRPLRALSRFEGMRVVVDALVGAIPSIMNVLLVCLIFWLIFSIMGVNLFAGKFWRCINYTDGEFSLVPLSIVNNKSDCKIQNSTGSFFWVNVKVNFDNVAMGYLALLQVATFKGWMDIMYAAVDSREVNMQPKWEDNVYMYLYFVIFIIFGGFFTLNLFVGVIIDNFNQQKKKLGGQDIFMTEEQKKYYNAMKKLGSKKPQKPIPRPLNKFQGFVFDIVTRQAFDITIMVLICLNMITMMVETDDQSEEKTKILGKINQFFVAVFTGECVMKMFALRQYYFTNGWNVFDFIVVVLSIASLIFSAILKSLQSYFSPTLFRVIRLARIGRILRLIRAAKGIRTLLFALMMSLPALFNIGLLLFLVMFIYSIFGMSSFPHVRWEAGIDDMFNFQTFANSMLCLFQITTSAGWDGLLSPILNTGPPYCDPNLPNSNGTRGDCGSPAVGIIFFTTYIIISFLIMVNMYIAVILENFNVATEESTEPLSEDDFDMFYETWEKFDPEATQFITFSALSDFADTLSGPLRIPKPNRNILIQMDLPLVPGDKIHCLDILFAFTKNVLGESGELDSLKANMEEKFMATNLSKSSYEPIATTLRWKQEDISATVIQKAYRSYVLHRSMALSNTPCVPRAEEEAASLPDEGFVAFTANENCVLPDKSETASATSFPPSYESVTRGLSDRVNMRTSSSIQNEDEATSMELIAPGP

SMILES	IC50 [nM]
C[C@@H]1C(=O)NCCN1C(=O)NC(c1cnc(OCC(F)(F)F)s1)c1ccc(F)c(Cl)c1F (single isomer, unassigned) [Example 13B, (2R)-N-((S or R)-(3-chloro-2,4-difluoro-phenyl)(2-(2,2,2-trifluoroethoxy)thiazol-5-yl)methyl)-2-methyl-3-oxopiperazine-1-carboxamide]	9.42
C[C@@H]1C(=O)NCCN1C(=O)NC(c1cnc(OC(F)F)s1)c1ccc(F)c(Cl)c1F (single isomer, unassigned) [Example 14A, (2R)-N-((R or S)-(3-chloro-2,4-difluorophenyl)(2-(difluoromethoxy)thiazol-5-yl)methyl)-2-methyl-3-oxopiperazine-1-carboxamide]	5.57
C[C@@H]1C(=O)NCCN1C(=O)NC(c1cnc(OC(F)F)s1)c1ccc(F)c(Cl)c1F (single isomer, unassigned) [Example 14B, (2R)-N-((S or R)-(3-chloro-2,4-difluorophenyl)(2-(difluoromethoxy)thiazol-5-yl)methyl)-2-methyl-3-oxopiperazine-1-carboxamide]	101
C[C@@H]1C(=O)NCCN1C(=O)NC(c1ccc(C(F)(F)F)nc1)c1ccc(F)c(Cl)c1F (single isomer, unassigned) [Example 15A]	4.74
C[C@@H]1C(=O)NCCN1C(=O)NC(c1ccc(C(F)(F)F)nc1)c1ccc(F)c(Cl)c1F (single isomer, unassigned) [Example 15B]	59.9
C[C@@H]1C(=O)NCCN1C(=O)NC(c1ccc(C(F)(F)F)nc1)c1ccc(F)c(Cl)c1 (single isomer, unassigned) [Example 16A, (2R)-N-((R or S)-(3-chloro-4-fluorophenyl)(6-(trifluoromethyl)pyridin-3-yl)methyl)-2-methyl-3-oxopiperazine-1-carboxamide]	13.5
C[C@@H]1C(=O)NCCN1C(=O)NC(c1ccc(C(F)(F)F)nc1)c1ccc(F)c(Cl)c1 (single isomer, unassigned) [Example 16B, (2R)-N-((S or R)-(3-chloro-4-fluorophenyl)(6-(trifluoromethyl)pyridin-3-yl)methyl)-2-methyl-3-oxopiperazine-1-carboxamide]	31.7
C[C@@H]1C(=O)NCCN1C(=O)NC(c1ccc(Cl)cc1)c1ccc(C(F)(F)F)nc1 (single isomer, unassigned) [Example 17A, (2R)-N-((R or S)-(4-chlorophenyl)(6-(trifluoromethyl)pyridin-3-yl)methyl)-2-methyl-3-oxopiperazine-1-carboxamide]	101
C[C@@H]1C(=O)NCCN1C(=O)NC(c1ccc(Cl)cc1)c1ccc(C(F)(F)F)nc1 (single isomer, unassigned) [Example 17B, (2R)-N-((S or R)-(4-chlorophenyl)(6-(trifluoromethyl)pyridin-3-yl)methyl)-2-methyl-3-oxopiperazine-1-carboxamide]	34.6
C[C@@H]1C(=O)NCCN1C(=O)NC(c1ccc(C(F)(F)F)nc1)c1ccc(Cl)c(Cl)c1 (single isomer, unassigned) [Example 18A, (2R)-N-((R or S)-(3,4-dichlorophenyl)(6-(trifluoromethyl)pyridin-3-yl)methyl)-2-methyl-3-oxopiperazine-1-carboxamide]	3.89
C[C@@H]1C(=O)NCCN1C(=O)NC(c1ccc(C(F)(F)F)nc1)c1ccc(Cl)c(Cl)c1 (single isomer, unassigned) [Example 18B, (2R)-N-((S or R)-(3,4-dichlorophenyl)(6-(trifluoromethyl)pyridin-3-yl)methyl)-2-methyl-3-oxopiperazine-1-carboxamide]	4.69
C[C@@H]1C(=O)NCCN1C(=O)NC(c1ccc(C(F)(F)F)nc1)c1ccc(F)c(OC(F)(F)F)c1 (single isomer, unassigned) [Example 19A, (2R)-N-((R or S)-(4-fluoro-3-(trifluoro-methoxy)phenyl)(6-(trifluoromethyl)pyridin-3-yl)methyl)-2-methyl-3-oxopiperazine-1-carboxamide]	41.1
C[C@@H]1C(=O)NCCN1C(=O)NC(c1ccc(C(F)(F)F)nc1)c1ccc(F)c(OC(F)(F)F)c1 (single isomer, unassigned) [Example 19B, (2R)-N-((S or R)-(4-fluoro-3-(trifluoro-methoxy)phenyl)(6-(trifluoromethyl)pyridin-3-yl)methyl)-2-methyl-3-oxopiperazine-1-carboxamide]	72.6
C[C@@H]1C(=O)NCCN1C(=O)NC(c1ccc(OC(F)(F)F)cc1)c1cnc(C(F)(F)F)c(Cl)c1 (single isomer, unassigned) [Example 20A, (2R)-N-((R or S)-(5-chloro-6-(trifluoro-methyl)pyridin-3-yl)(4-(trifluoromethoxy)phenyl)methyl)-2-methyl-3-oxopiperazine-1-carboxamide]	4.01
C[C@@H]1C(=O)NCCN1C(=O)NC(c1ccc(OC(F)(F)F)cc1)c1cnc(C(F)(F)F)c(Cl)c1 (single isomer, unassigned) [Example 20B, (2R)-N-((S or R)-(5-chloro-6-(trifluoro-methyl)pyridin-3-yl)(4-(trifluoromethoxy)phenyl)methyl)-2-methyl-3-oxopiperazine-1-carboxamide]	4
C[C@@H]1C(=O)NCCN1C(=O)NC(c1ccc(OC(F)(F)F)c(F)c1)c1cnc(C(F)(F)F)c(Cl)c1 (single isomer, unassigned) [Example 21A, (2R)-N-((R or S)-(5-chloro-6-(trifluoro-methyl)pyridin-3-yl)(3-fluoro-4-(trifluoromethoxy)phenyl)methyl)-2-methyl-3-oxopiperazine-1-carboxamide]	1.45
C[C@@H]1C(=O)NCCN1C(=O)NC(c1ccc(OC(F)(F)F)c(F)c1)c1cnc(C(F)(F)F)c(Cl)c1 (single isomer, unassigned) [Example 21B, (2R)-N-((S or R)-(5-chloro-6-(trifluoro-methyl)pyridin-3-yl)(3-fluoro-4-(trifluoro-methoxy)phenyl)methyl)-2-methyl-3-oxo-piperazine-1-carboxamide]	7.71
C[C@@H]1C(=O)NCCN1C(=O)NC(c1ccc(OC(F)(F)F)c(Cl)c1)c1cnc(C(F)(F)F)c(Cl)c1 (single isomer, unassigned) [Example 22A, (2R)-N-((R or S)-(3-chloro-4-(trifluoro-methoxy)phenyl)(5-chloro-6-(trifluoro-methyl)pyridin-3-yl)methyl)-2-methyl-3-oxopiperazine-1-carboxamide]	0.31
C[C@@H]1C(=O)NCCN1C(=O)NC(c1ccc(OC(F)(F)F)c(Cl)c1)c1cnc(C(F)(F)F)c(Cl)c1 (single isomer, unassigned) [Example 22B, (2R)-N-((S or R)-(3-chloro-4-(trifluoro-methoxy)phenyl)(5-chloro-6-(trifluoro-methyl)pyridin-3-yl)methyl)-2-methyl-3-oxopiperazine-1-carboxamide]	2.88
C[C@@H]1C(=O)NCCN1C(=O)NC(c1cnc(C(F)(F)F)c(Cl)c1)c1ccc(Cl)c(C#N)c1 (single isomer, unassigned) [Example 23A, (2R)-N-((R or S)-(4-chloro-3-cyano-phenyl)(5-chloro-6-(trifluoromethyl)pyridin-3-yl)methyl)-2-methyl-3-oxopiperazine-1-carboxamide]	17
C[C@@H]1C(=O)NCCN1C(=O)NC(c1cnc(C(F)(F)F)c(Cl)c1)c1ccc(Cl)c(C#N)c1 (single isomer, unassigned) [Example 23B, (2R)-N-((S or R)-(4-chloro-3-cyano-phenyl)(5-chloro-6-(trifluoromethyl)pyridin-3-yl)methyl)-2-methyl-3-oxopiperazine-1-carboxamide]	6.06
C[C@@H]1C(=O)NCCN1C(=O)NC(c1ccc(C#N)c(Cl)c1)c1cnc(C(F)(F)F)c(Cl)c1 (single isomer, unassigned) [Example 24A, (2R)-N-((R or S)-(3-chloro-4-cyano-phenyl)(5-chloro-6-(trifluoromethyl)pyridin-3-yl)methyl)-2-methyl-3-oxopiperazine-1-carboxamide]	22.3
C[C@@H]1C(=O)NCCN1C(=O)NC(c1ccc(C#N)c(Cl)c1)c1cnc(C(F)(F)F)c(Cl)c1 (single isomer, unassigned) [Example 24B, (2R)-N-((S or R)-(3-chloro-4-cyano-phenyl)(5-chloro-6-(trifluoromethyl)pyridin-3-yl)methyl)-2-methyl-3-oxopiperazine-1-carboxamide]	2.84
